Laboratory results as given in paper PMC11672637, “7-O-Carboxylic Acid-Substituted 3-O-Alkyl Difluoroquercetin; An Aztreonam-Potentiating Agent Against Carbapenemase-Producing Pseudomonas aeruginosa Through Simultaneous Inhibition of Metallo-β-Lactamase and Efflux Pump” (Antibiotics, 2024).
Where two headings read alike, the source gives them in different places.

Legend:
[1] = test system: human red blood cells; experiment: Hemolytic activity assay; assay type: cell-based; details: human RBCs; 4–128 mg/L tested
Procedure: Washed human red blood cells (hRBCs, Innovative Research, Novi, MI, USA) were diluted 1:100 in HEPES-NaOH buffered saline (HBS) [150 mM NaCl/5 mM HEPES-NaOH (pH 7.4)]. Samples (100 μL) were taken from the serially diluted (4 to 128 mg/L) compound 5 and mixed with 250 μL of hRBCs in 1.5 mL microcentrifuge tube. After incubation at 37 °C for 30 min, the tubes were centrifuged at 3000 rpm for 5 min. The supernatant (50 μL), thus obtained, was transferred to transparent, flat-bottom 96-well plates and absorption was measured at 405 nm (Cytation 5 imaging multimode reader, BioTek Instruments, Inc., Winooski, VT, USA). In some cases, 1% TritonX-100 or HBS buffer was used instead of the compound 5 as positive and negative controls, respectively. The percentage of hemolysis was calculated as follows: % Hemolysis = (ODtest − ODHBS)/[…] × 100%.

[2] = target: T1, VIM-2 (Escherichia coli, UniProt Q5U7L7); experiment: β-lactamase inhibition assay (nitrocefin); assay type: biochemical; details: nitrocefin substrate; read-out: BLi, IC50 VIM-2
T1 construct: VIM-2 (residues 27–266); made in house; host or cells: Escherichia coli
Procedure: (§1) Recombinant AmpC, OXA-48 (residues 23–265) and VIM-2 (residues 27–266) were prepared from Escherichia coli based on previously established protocols. KPC-2 and NDM-1 are commercially available from LifeSpan Biosciences, Inc., Seattle, WA, USA (LS-G26598) and RayBiotech, Inc., Peachtree Corners, GA, USA (230-00554), respectively. For β-lactamase inhibition assay, in a 96-well plate, 70–0.1 μM (in PBS) of the synthesized compounds (1~14) (100 μL) were mixed with diluted β-lactamase stock (2% DMSO in 200 μL). In a separate 96-well plate, a substrate of AmpC, KPC-2, OXA-48, and VIM-2 (nitrocefin) and NDM-1 (imipenem) were added into each well (final concentrations of 70 μM for nitrocefin and 100 μM for imipenem). After incubation at 37 °C for 20 min, the mixture of the synthesized compounds (1~14) and β-lactamase in one plate was added to the substrate in the other plate. Enzymatic hydrolysis of the substrate was then monitored by a Cytation 5 imaging multimode reader (BioTek Instruments Inc., Winooski, VT, USA) at 486 nm and 300 nm for nitrocefin and imipenem, respectively, for 15 min. The rates of hydrolysis in the presence of the inhibitors were determined when the reaction rate plateaued. Comparison of the enzymatic hydrolysis rates in the presence and the absence of inhibitors (100%) provided the percentage of enzyme inhibition at each concentration of the synthesized compounds. The IC50 values were obtained after non-linear regression (sigmoidal dose-responses) by GraphPad Prism 5 (GraphPad Software, Boston, MA, USA).

[3] = target: T2, OXA-48 (Klebsiella pneumoniae, UniProt Q6XEC0); experiment: β-lactamase inhibition assay (nitrocefin); assay type: biochemical; details: nitrocefin substrate; read-out: BLi, IC50 OXA-48
T2 construct: OXA-48 (residues 23–265); made in house; host or cells: Escherichia coli
Procedure: as §1

[4] = target: AmpC; experiment: β-lactamase inhibition assay (nitrocefin); assay type: biochemical; details: nitrocefin substrate; read-out: BLi, IC50 AmpC
Procedure: as §1

[5] = target: T3, KPC-2 (Klebsiella pneumoniae, UniProt Q9F663); experiment: β-lactamase inhibition assay (nitrocefin); assay type: biochemical; details: nitrocefin substrate; read-out: BLi, IC50 KPC-2
T3 construct: purchased LifeSpan Biosciences, Inc. LS-G26598
Procedure: as §1

[6] = target: T4, NDM-1 (Klebsiella pneumoniae, UniProt C7C422); experiment: β-lactamase inhibition assay (imipenem); assay type: biochemical; details: imipenem substrate; read-out: BLi, IC50 NDM-1
T4 construct: purchased RayBiotech, Inc. 230-00554
Procedure: as §1

[7] = In vivo pharmacokinetic study; design: species or system Sprague–Dawley (SD) rats; details: rat; for Vd: iv, 5 mg/kg; for MRT last: read-out: MRT0–last; for MRT inf: read-out: MRT0–∞
Procedure: After administration of compound 5 (5 mg/kg intravenously and 10 mg/kg orally) to specific pathogen-free (SPF) male Sprague–Dawley (SD) rats (Medicilon Colony: 999M-017), samples of serum were taken at eight different time points (0.083, 0.25, 0.5, 1, 2, 4, 8, and 24 h). Analysis of the samples were performed by liquid chromatography with tandem mass spectrometry (LC-MS/MS). A standard set of parameters were calculated using non-compartmental analysis modules in FDA certified pharmacokinetic program Phoenix WinNonlin 7.0 (Pharsight, Mountain View, CA, USA).

[8] = test system: HEK293 cells; experiment: Cytotoxicity assay (WST-1); assay type: cell-based, human; details: 24 h, 0.5–128 mg/L tested
Procedure: The HEK293 cells were cultured in Dulbecco’s modified Eagle medium (DMEM) supplemented with 10% fetal bovine serum (FBS) and 1% penicillin-streptomycin solution at 37 °C with 5% CO2. The cells seeded into 96-well plates at 1.5 × 10^4 cells/well were incubated for 24 h. The compound 5 was added to the wells at concentrations ranging from 0.5 to 128 mg/L and incubated for 24 h. Then, for WST-1 assay, EZ-cytox solution (10 μL, DoGenBio, Seoul, Republic of Korea) was added to the wells and incubated for 1 h, and the absorbance was measured at 450 nm (Cytation 5 imaging multimode reader, BioTek Instruments, Inc., Winooski, VT, USA).

[9] = male, Sprague-Dawley, serum, Intravenous (5 mg/kg)
[10] = male, Sprague-Dawley, serum, Oral (10 mg/kg)

T2 sequence (Q6XEC0 23-265 limits assumed): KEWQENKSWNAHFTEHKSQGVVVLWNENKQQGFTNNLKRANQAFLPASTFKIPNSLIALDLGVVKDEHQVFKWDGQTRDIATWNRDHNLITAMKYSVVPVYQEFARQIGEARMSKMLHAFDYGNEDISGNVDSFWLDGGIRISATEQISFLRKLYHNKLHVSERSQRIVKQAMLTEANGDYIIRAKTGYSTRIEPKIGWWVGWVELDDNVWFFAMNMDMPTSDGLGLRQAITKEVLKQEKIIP
T3 sequence (Q9F663 25-293, looked up, species assumed): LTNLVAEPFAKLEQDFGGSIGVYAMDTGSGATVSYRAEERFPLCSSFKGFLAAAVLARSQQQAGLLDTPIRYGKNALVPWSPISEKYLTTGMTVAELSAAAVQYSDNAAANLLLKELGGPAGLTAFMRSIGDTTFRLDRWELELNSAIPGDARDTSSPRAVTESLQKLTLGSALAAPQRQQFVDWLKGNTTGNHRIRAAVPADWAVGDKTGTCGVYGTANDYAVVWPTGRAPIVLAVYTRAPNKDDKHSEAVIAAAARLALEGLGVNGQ
T4 sequence (C7C422 29-270, looked up, species assumed): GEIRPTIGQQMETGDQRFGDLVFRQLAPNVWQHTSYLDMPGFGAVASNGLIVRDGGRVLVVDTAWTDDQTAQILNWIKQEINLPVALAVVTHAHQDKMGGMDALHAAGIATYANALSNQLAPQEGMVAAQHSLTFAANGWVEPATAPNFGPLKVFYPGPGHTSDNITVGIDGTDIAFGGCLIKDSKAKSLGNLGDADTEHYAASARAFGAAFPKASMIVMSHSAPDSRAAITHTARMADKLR

Compound: CC(C)(C)CCOc1c(-c2ccc(F)c(F)c2)oc2cc(OCC(=O)O)cc(O)c2c1=O [Compound 5, 2-((2-(3,4-Difluorophenyl)-3-(3,3-dimethylbutoxy)-5-hydroxy-4-oxo-4H-chromen-7-yl)oxy)acetic Acid]
- Concentration up to which no noticeable toxic effect (hemolysis) [1]: ≥ 128000 ng/mL
- IC50 [2]: > 100 µM
- IC50 [3]: > 100 µM
- IC50 [4]: > 50 µM
- IC50 [5]: > 50 µM
- IC50 [6]: 6.1 ± 0.4 µM
- Vd ([7]; male, Sprague-Dawley, serum, Intravenous (5 mg/kg), read-out: Vss): 0.65 ± 0.09 L/kg
- Vd ([7]; male, Sprague-Dawley, serum, Intravenous (5 mg/kg), read-out: Vz): 1.84 ± 0.76 L/kg
- Vd ([7]; male, Sprague-Dawley, serum, intravenous 5 mg/kg, read-out: Vss): 0.65 L/kg
- AUC(0-inf) [7, 9]: 3610 ± 590 ng·h/mL
- AUC(0-t) [7, 9]: 3600 ± 590 ng·h/mL
- C0 [7, 9]: 11100 ± 2390 ng/mL
- half-life [7, 9]: 0.92 ± 0.42 h
- clearance ([7]; male, Sprague-Dawley, serum, Intravenous (5 mg/kg), read-out: Cl (systemic clearance)): 23.6 mL/min/kg
- Cmax ([7]; male, Sprague-Dawley, serum, Intravenous (5 mg/kg), read-out: Cmax): 7510 ng/mL
- MRT last [7, 9]: 0.45 ± 0.02 h
- MRT inf [7, 9]: 0.46 ± 0.02 h
- AUC(0-inf) [7, 10]: 1280 ± 540 ng·h/mL
- AUC(0-t) [7, 10]: 1250 ± 570 ng·h/mL
- Tmax [7, 10]: 2 h
- half-life [7, 10]: 1.28 ± 0.53 h
- Cmax ([7]; male, Sprague-Dawley, serum, Oral (10 mg/kg), read-out: Cmax): 290 ± 140 ng/mL
- bioavailability ([7]; male, Sprague-Dawley, serum, Oral (10 mg/kg), read-out: F (bioavailability)): 17.3 ± 7.88%
- MRT last [7, 10]: 2.87 ± 0.25 h
- MRT inf [7, 10]: 3.13 ± 0.35 h
- Cmax ([7]; Intravenous (5 mg/kg)): 7510 ± 1340 ng/mL
- Concentration at which cell viability was affected [8]: greater than 64 mg/L
